Consider one molecule from patent publication US12433903B2 (priority 2021, dated 2025).

The target of this assay is T1, adrenoceptor alpha 2A (ADRA2A) (Homo sapiens, UniProt P08913).
T1 construct: expressed in transfected cells
T1 sequence (P08913 1-465): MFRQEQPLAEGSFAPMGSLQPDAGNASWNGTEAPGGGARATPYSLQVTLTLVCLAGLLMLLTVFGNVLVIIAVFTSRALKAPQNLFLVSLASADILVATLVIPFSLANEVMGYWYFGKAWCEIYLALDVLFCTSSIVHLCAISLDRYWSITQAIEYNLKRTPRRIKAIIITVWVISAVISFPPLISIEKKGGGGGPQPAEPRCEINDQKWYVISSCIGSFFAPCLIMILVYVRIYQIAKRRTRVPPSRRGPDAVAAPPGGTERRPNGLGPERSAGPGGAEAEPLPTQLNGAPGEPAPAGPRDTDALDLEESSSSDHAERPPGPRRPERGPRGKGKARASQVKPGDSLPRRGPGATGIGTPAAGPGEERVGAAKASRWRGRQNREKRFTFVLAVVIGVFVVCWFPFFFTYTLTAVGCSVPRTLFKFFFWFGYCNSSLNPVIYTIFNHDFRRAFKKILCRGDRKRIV
Briefly: ADRA2A agonist assay (cAMP secondary messenger pathway, HitHunter cAMP XS+). The class given is cell-based. The source says: Compounds of the present disclosure (e.g., one or more compounds of Formula (1), (II), (III), Table 1 or Table 2) may be tested for activity in receptor binding assays using methods known in the art, to evaluate agonist, antagonist, inverse agonist and other modes of activity. For example compounds of the disclosure may be tested in a adrenoceptor alpha 2A (ADRA2A) Agonist assay as follows:
Cell lines stably expressing non-tagged adrenoceptor alpha 2A (ADRA2A) that signal through cAMP were used. Agonist assays monitored by the activation of ADRA2A via Gi or Gs secondary messenger signaling in a homogenous, non-imaging assay format using a technology called Enzyme Fragment Complementation (EFC) with P-galactosidase (p-Gal) as the functional reporter.
The enzyme is split into two complementary portions: EA for Enzyme Acceptor and ED for Enzyme Donor. ED is fused to cAMP and in the assay competes with cAMP generated by cells for binding to a cAMP-specific antibody. Active P-Gal is formed by complementation of exogenous EA to any unbound ED cAMP. Active enzyme can then convert a chemiluminescent substrate, generating an output signal detectable on a standard microplate reader.
• 1. cAMP assay ADRA2A cell lines were expanded from freezer stocks according to standard procedures. • 2. Cells were seeded in a total volume of 20 μL into white walled, 384 well microplates and incubated at 37° C. for the appropriate time prior to testing • 3. cAMP modulation was determined using the DiscoverX HitHunter cAMP XS+ assay Gs Agonist Format • 1. For agonist determination, cells were incubated with sample to induce response. • 2. Media was aspirated from cells and replaced with 15 μL 2:1 HBSS/10 mM Hepes: cAMP XS+Ab reagent. • 3. Intermediate dilution of sample stocks was performed to generate 4× sample in assay buffer. • 4. 5 μL of 4× sample was added to cells and incubated at 37° C. or room temperature for 30 or 60 minutes. Vehicle concentration was 1%. Gi Agonist Format • 1. For agonist determination, cells were incubated with sample in the presence of EC80 forskolin to induce response. • 2. Media was aspirated from cells and replaced with 15 μL 2:1 HBSS/10 mM Hepes: cAMP XS+Ab reagent. • 3. Intermediate dilution of sample stocks was performed to generate 4× sample in assay buffer containing 4× EC80 forskolin. • 4. 5 μL of 4× sample was added to cells and incubated at 37° C. or room temperature for 30 or 60 minutes. Final assay vehicle concentration was 1% Signal Detection • 1. After appropriate compound incubation, assay signal was generated through incubation with 20 μL cAMP XS+ED/CL lysis cocktail for one hour followed by incubation with 20 μL cAMP XS+EA reagent for three hours at room temperature. • 2. Microplates were read following signal generation with a PerkinElmer Envision™ instrument for chemiluminescent signal detection. Data Analysis • 1. Compound activity was analyzed using CBIS data analysis suite (ChemInnovation, CA) • 2. For Gs agonist mode assays, percentage activity is calculated using the following formula: % Activity=100%×(mean RLU of test sample−mean RLU of vehicle control)/(mean RLU of MAX control−mean RLU of vehicle control). • 3. For Gi agonist mode assays, percentage activity is calculated using the following formula: % Activity=100%×(1−(mean RLU of test sample-mean RLU of MAX control)/(mean RLU of vehicle control-mean RLU of MAX control))

pEC50: −log10 of the molar value.

What is called pEC50 is −log10 of the EC50, conventionally taken in molar units. Turning to `CCCCCc1cc(O)c(C/C=C(\C)CCC=C(C)C)c(O)c1` [CBG, cannabigerol], the “Curve Bottom” value was 17.138, the “Curve Top” value is listed as 167.56 and the Hill was 1.5564. Moreover, the Emax (read-out: Max Response) was 163%. Moreover, the pEC50 (read-out: RC50 (Result Type EC50)) was 5.87.
